According to PubChem BioAssay (NCI):
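Tested at 5 concentrations; 48 h exposure; 96-well plates; endpoints linearly interpolated, else capped at highest concentration. TGI: total growth inhibition.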

Key:
Assay in all cases: NCI-60 cell line screen, 48 h
SK-MEL-5 melanoma = system: SK-MEL-5 melanoma
EKVX NSCLC = system: EKVX NSCLC
TK-10 renal = system: TK-10 renal
OVCAR-4 ovarian = system: OVCAR-4 ovarian
SK-OV-3 ovarian = system: SK-OV-3 ovarian
DU-145 prostate = system: DU-145 prostate
SF-295 CNS = system: SF-295 CNS
SK-MEL-28 melanoma = system: SK-MEL-28 melanoma
MDA-MB-231 breast = system: MDA-MB-231 breast
NCI/ADR-RES ovarian = system: NCI/ADR-RES ovarian
M14 melanoma = system: M14 melanoma
HCT-15 colon = system: HCT-15 colon
SF-268 CNS = system: SF-268 CNS
T-47D breast = system: T-47D breast
ACHN renal = system: ACHN renal
SNB-75 CNS = system: SNB-75 CNS
A549 NSCLC = system: A549 NSCLC
SK-MEL-2 melanoma = system: SK-MEL-2 melanoma
UACC-257 melanoma = system: UACC-257 melanoma
SW-620 colon = system: SW-620 colon
U251 CNS = system: U251 CNS
SF-539 CNS = system: SF-539 CNS
MOLT-4 leukemia = system: MOLT-4 leukemia
SNB-19 CNS = system: SNB-19 CNS
PC-3 prostate = system: PC-3 prostate
HOP-62 NSCLC = system: HOP-62 NSCLC
SN12C renal = system: SN12C renal
OVCAR-3 ovarian = system: OVCAR-3 ovarian
K-562 leukemia = system: K-562 leukemia
RXF 393 renal = system: RXF 393 renal
NCI-H23 lung = system: NCI-H23 lung
KM12 colon = system: KM12 colon
COLO 205 colon = system: COLO 205 colon
LOX IMVI melanoma = system: LOX IMVI melanoma
UACC-62 melanoma = system: UACC-62 melanoma
MDA-MB-435 = system: MDA-MB-435
UO-31 renal = system: UO-31 renal
SR leukemia = system: SR leukemia
HS 578T breast = system: HS 578T breast
HOP-92 NSCLC = system: HOP-92 NSCLC
CAKI-1 renal = system: CAKI-1 renal
A498 renal = system: A498 renal
OVCAR-5 ovarian = system: OVCAR-5 ovarian
CCRF-CEM leukemia = system: CCRF-CEM leukemia
IGROV1 ovarian = system: IGROV1 ovarian
MDA-N = system: MDA-N
HCC-2998 colon = system: HCC-2998 colon
RPMI-8226 leukemia = system: RPMI-8226 leukemia
786-0 renal = system: 786-0 renal
HCT-116 colon = system: HCT-116 colon
NCI-H460 lung = system: NCI-H460 lung
MALME-3M melanoma = system: MALME-3M melanoma
OVCAR-8 ovarian = system: OVCAR-8 ovarian
HL-60(TB) leukemia = system: HL-60(TB) leukemia
NCI-H226 lung = system: NCI-H226 lung
HT29 colon = system: HT29 colon
MCF7 breast = system: MCF7 breast
NCI-H522 lung = system: NCI-H522 lung
BT-549 breast = system: BT-549 breast

Question: `O=C1C=C(N2CCN(c3ccccn3)CC2)C(=O)c2c(O)ccc(O)c21` was tested. Which TGI (SK-MEL-5 melanoma) did it give?
Answer: The TGI was 4.5 µM.

Question: What about the TGI (EKVX NSCLC) of the same compound?
Answer: Its TGI is > 65.7 µM.

Question: And the TGI (TK-10 renal)?
Answer: Its TGI is 45.7 µM.

Question: And the TGI (OVCAR-4 ovarian)?
Answer: The TGI was 28.2 µM.

Question: What about the TGI (SK-OV-3 ovarian) of the same compound?
Answer: Its TGI is 51.3 µM.

Question: What about the TGI (DU-145 prostate) of the same compound?
Answer: The TGI was > 55.5 µM.

Question: And the TGI (SF-295 CNS)?
Answer: Its TGI is 51.5 µM.

Question: And the TGI (SK-MEL-28 melanoma)?
Answer: Its TGI is > 56.2 µM.

Question: And the TGI (MDA-MB-231 breast)?
Answer: Its TGI is 44.9 µM.

Question: What about the TGI (NCI/ADR-RES ovarian) of the same compound?
Answer: The TGI was 11.5 µM.

Question: What about the TGI (M14 melanoma) of the same compound?
Answer: The TGI was > 48.2 µM.

Question: And the TGI (HCT-15 colon)?
Answer: The TGI was 39.1 µM.

Question: And the TGI (SF-268 CNS)?
Answer: Its TGI is > 56.2 µM.

Question: What about the TGI (T-47D breast) of the same compound?
Answer: The TGI was > 100 µM.

Question: What about the TGI (ACHN renal) of the same compound?
Answer: Its TGI is > 56.2 µM.

Question: What about the TGI (SNB-75 CNS) of the same compound?
Answer: Its TGI is 23.7 µM.

Question: What about the TGI (A549 NSCLC) of the same compound?
Answer: Its TGI is 40.7 µM.

Question: What about the TGI (SK-MEL-2 melanoma) of the same compound?
Answer: The TGI was 18.6 µM.

Question: What about the TGI (UACC-257 melanoma) of the same compound?
Answer: The TGI was 23.4 µM.

Question: And the TGI (SW-620 colon)?
Answer: Its TGI is 45.2 µM.

Question: What about the TGI (U251 CNS) of the same compound?
Answer: Its TGI is 23 µM.

Question: What about the TGI (SF-539 CNS) of the same compound?
Answer: Its TGI is 22.3 µM.

Question: And the TGI (MOLT-4 leukemia)?
Answer: Its TGI is 42.2 µM.

Question: What about the TGI (SNB-19 CNS) of the same compound?
Answer: The TGI was 78.6 µM.

Question: What about the TGI (PC-3 prostate) of the same compound?
Answer: The TGI was > 56.2 µM.

Question: What about the TGI (HOP-62 NSCLC) of the same compound?
Answer: Its TGI is 47.7 µM.

Question: What about the TGI (SN12C renal) of the same compound?
Answer: The TGI was 45.2 µM.

Question: What about the TGI (OVCAR-3 ovarian) of the same compound?
Answer: The TGI was 20.3 µM.

Question: And the TGI (K-562 leukemia)?
Answer: Its TGI is 36.2 µM.

Question: What about the TGI (RXF 393 renal) of the same compound?
Answer: The TGI was 43.4 µM.

Question: What about the TGI (NCI-H23 lung) of the same compound?
Answer: Its TGI is 13 µM.

Question: What about the TGI (KM12 colon) of the same compound?
Answer: Its TGI is > 46.4 µM.

Question: What about the TGI (COLO 205 colon) of the same compound?
Answer: Its TGI is 16 µM.

Question: And the TGI (LOX IMVI melanoma)?
Answer: The TGI was > 45 µM.

Question: And the TGI (UACC-62 melanoma)?
Answer: The TGI was 16.1 µM.

Question: And the TGI (MDA-MB-435)?
Answer: Its TGI is 1.75 µM.

Question: What about the TGI (UO-31 renal) of the same compound?
Answer: The TGI was > 46.4 µM.

Question: And the TGI (SR leukemia)?
Answer: Its TGI is > 50.7 µM.

Question: And the TGI (HS 578T breast)?
Answer: Its TGI is > 70.3 µM.

Question: And the TGI (HOP-92 NSCLC)?
Answer: The TGI was > 54.1 µM.

Question: And the TGI (CAKI-1 renal)?
Answer: Its TGI is > 46.4 µM.

Question: And the TGI (A498 renal)?
Answer: The TGI was 52.2 µM.

Question: And the TGI (OVCAR-5 ovarian)?
Answer: The TGI was > 46.4 µM.

Question: What about the TGI (CCRF-CEM leukemia) of the same compound?
Answer: Its TGI is > 36.8 µM.

Question: And the TGI (IGROV1 ovarian)?
Answer: Its TGI is 43.5 µM.

Question: And the TGI (MDA-N)?
Answer: The TGI was 5.76 µM.

Question: What about the TGI (HCC-2998 colon) of the same compound?
Answer: The TGI was 43.1 µM.

Question: What about the TGI (RPMI-8226 leukemia) of the same compound?
Answer: Its TGI is 41.7 µM.

Question: And the TGI (786-0 renal)?
Answer: The TGI was 42.9 µM.

Question: What about the TGI (HCT-116 colon) of the same compound?
Answer: Its TGI is 10.3 µM.

Question: And the TGI (NCI-H460 lung)?
Answer: The TGI was 38.1 µM.

Question: And the TGI (MALME-3M melanoma)?
Answer: The TGI was 1.63 µM.

Question: What about the TGI (OVCAR-8 ovarian) of the same compound?
Answer: The TGI was > 90.8 µM.

Question: And the TGI (HL-60(TB) leukemia)?
Answer: The TGI was 20.3 µM.

Question: And the TGI (NCI-H226 lung)?
Answer: Its TGI is > 56.2 µM.

Question: What about the TGI (HT29 colon) of the same compound?
Answer: Its TGI is 31.2 µM.

Question: What about the TGI (MCF7 breast) of the same compound?
Answer: Its TGI is 18.6 µM.

Question: What about the TGI (NCI-H522 lung) of the same compound?
Answer: Its TGI is 41.2 µM.

Question: What about the TGI (BT-549 breast) of the same compound?
Answer: The TGI was > 100 µM.
